Measurements published in ChEMBL document CHEMBL1201862, “PubChem BioAssay data set” (2004).
Calls of active or inactive are those of the source. Unless noted, the calls are words filed in the database; no cut-off is given here.

Experiments:
[1] = target: T1, Voltage-gated N-type calcium channel alpha-1B subunit/Amyloid beta A4 precursor protein-binding family A member 1 (Homo sapiens, UniProt Q00975+Q02410); assay: disruptors of Mint-PDZ/N-type channel peptide interaction – biochemical, HTRF, set 2, SAR follow-up (AID 434980); assay type: functional
[2] = target: SUMO E1/E2 (Homo sapiens, UniProt P63279+Q9UBE0+Q9UBT2); assay: SAR analysis of SUMOylation using HTRF in an in-Vitro dose response assay. [Related pubchem assays (depositor defined):AID2006, AID2011, AID2018, AID2069, AID2658]; assay type: functional
[3] = target: T1, Voltage-gated N-type calcium channel alpha-1B subunit/Amyloid beta A4 precursor protein-binding family A member 1; assay: disruptors of Mint-PDZ/N-type channel peptide interaction – biochemical, HTRF, SAR follow-up (AID 2489); assay type: functional
[4] = target: Collagenase 3 (Homo sapiens, UniProt P45452); assay: potency against MMP13, MMP2, MMP3, MMP14 – biochemical, probe development, late stage results, selectivity assay for MMP13 inhibitor project, late-stage follow-up, panel member MMP-13 [IC50 Assay] (AID 2067)
[5] = target: Neutrophil collagenase (Homo sapiens, UniProt P22894); assay: potency against MMP13, MMP2, MMP3, MMP14 – biochemical, probe development, late stage results, selectivity assay for MMP13 inhibitor project, late-stage follow-up, panel member MMP-8 [IC50 Assay] (AID 2067)
[6] = target: Caspase-7 (Homo sapiens, UniProt P55210); assay: potency of procaspase-7 enzyme activation – biochemical, absorbance, human, dual procaspase-3/-7 activator project, dose response (AID 504330)
[7] = target: T2, Insulin-degrading enzyme (Homo sapiens, UniProt P14735); assay: Dose Response: Fluorescence polarization-based cell-based high throughput dose response assay for inhibitors of insulin-degrading enzyme (IDE). [Related pubchem assays: 434962 (Primary screen (IDE inhibitors in singlicate)), 449730 (Counterscreen (Cytotoxicity in triplicate)), 435028 (Confirmation (IDE inhibitors in triplicate)), 434984 (Summary …; assay type: functional
T2 sequence (P14735 whole entry): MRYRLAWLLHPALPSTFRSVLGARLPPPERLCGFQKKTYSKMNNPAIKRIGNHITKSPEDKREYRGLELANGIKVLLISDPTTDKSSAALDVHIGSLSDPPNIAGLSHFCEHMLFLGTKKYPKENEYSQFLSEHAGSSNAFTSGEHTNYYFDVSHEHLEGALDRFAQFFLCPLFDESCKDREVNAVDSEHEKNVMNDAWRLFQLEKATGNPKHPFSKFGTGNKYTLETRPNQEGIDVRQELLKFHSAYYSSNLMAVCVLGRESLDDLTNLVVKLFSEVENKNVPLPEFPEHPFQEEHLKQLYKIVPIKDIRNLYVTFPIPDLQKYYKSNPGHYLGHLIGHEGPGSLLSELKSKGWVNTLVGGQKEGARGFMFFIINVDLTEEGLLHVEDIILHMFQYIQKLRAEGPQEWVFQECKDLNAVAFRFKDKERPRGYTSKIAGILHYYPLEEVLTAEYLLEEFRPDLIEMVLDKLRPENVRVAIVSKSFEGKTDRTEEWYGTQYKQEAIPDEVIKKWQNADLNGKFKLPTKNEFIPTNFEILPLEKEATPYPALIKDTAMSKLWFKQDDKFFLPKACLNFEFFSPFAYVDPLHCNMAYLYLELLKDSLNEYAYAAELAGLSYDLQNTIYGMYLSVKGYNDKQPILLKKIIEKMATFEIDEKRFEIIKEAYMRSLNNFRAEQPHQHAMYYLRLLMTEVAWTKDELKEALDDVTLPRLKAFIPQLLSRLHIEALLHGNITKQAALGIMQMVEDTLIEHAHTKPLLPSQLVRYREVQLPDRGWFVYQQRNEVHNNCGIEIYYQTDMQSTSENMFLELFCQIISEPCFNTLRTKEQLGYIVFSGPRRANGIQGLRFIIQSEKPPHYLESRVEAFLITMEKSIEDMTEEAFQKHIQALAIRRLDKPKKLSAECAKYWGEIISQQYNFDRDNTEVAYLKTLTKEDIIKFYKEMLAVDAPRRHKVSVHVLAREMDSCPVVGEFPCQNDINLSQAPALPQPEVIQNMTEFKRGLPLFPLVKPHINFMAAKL

[8] = Counterscreen for IDE inhibitors: Luminescence-based cell-based high throughput dose response assay to identify compounds that are cytotoxic to HEK cells. [Related pubchem assays: 434962 (Primary screen (IDE inhibitors in singlicate)), 449730 (Counterscreen (Cytotoxicity in triplicate)), 435028 (Confirmation (IDE inhibitors in triplicate)) …; assay type: functional; conditions: HEK293
[9] = target: T3, Corticotropin-releasing factor receptor 2/Corticotropin-releasing factor-binding protein (Homo sapiens, UniProt P24387+Q13324); assay: activators of CRF receptor 2 with binding protein – uHTS hits, confirmation (AID 602473); assay type: functional; conditions: read-out: EC50_Mean
T3 sequence (Q13324 whole entry): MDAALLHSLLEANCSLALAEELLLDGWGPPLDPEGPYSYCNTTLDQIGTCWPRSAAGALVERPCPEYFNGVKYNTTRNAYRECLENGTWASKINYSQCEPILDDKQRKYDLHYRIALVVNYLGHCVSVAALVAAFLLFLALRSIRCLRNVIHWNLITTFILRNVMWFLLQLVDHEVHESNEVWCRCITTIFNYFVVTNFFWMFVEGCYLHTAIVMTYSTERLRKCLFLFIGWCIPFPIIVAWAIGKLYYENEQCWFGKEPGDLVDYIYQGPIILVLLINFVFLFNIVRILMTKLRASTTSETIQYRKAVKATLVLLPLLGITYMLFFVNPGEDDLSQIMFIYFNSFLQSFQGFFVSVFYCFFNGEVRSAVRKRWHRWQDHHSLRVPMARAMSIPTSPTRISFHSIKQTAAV
T3 sequence (P24387 whole entry): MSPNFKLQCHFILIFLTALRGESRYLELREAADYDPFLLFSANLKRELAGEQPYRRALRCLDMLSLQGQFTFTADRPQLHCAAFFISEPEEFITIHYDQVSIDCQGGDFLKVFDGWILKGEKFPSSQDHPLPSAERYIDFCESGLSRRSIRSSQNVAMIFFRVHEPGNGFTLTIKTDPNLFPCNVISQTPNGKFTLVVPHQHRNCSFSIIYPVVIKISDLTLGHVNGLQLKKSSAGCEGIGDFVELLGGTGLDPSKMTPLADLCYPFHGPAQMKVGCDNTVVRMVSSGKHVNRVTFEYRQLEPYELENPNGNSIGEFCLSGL

[10] = target: T4, Caspase-3 (Homo sapiens, UniProt P42574); assay: activators of human procaspase-3 D3A mutant – biochemical, absorbance, PC-3 D3A mutant, counter-screen for dual procaspase-3/7 activator project, dose response (AID 504328)
T4 sequence (P42574 whole entry): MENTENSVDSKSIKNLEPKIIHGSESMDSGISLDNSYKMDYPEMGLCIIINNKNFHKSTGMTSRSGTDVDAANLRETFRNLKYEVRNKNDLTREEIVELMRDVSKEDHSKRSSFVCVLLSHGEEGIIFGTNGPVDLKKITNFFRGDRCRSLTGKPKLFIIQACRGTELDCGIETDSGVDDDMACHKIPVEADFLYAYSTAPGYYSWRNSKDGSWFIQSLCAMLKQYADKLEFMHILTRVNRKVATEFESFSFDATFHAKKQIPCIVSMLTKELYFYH

[11] = target: T5, Mannose-6-phosphate isomerase (Homo sapiens, UniProt P34949); assay: phosphomannose isomerase inhibition – biochemical, fluorescence intensity, confirmation (AID 1535)
T5 sequence (P34949 whole entry): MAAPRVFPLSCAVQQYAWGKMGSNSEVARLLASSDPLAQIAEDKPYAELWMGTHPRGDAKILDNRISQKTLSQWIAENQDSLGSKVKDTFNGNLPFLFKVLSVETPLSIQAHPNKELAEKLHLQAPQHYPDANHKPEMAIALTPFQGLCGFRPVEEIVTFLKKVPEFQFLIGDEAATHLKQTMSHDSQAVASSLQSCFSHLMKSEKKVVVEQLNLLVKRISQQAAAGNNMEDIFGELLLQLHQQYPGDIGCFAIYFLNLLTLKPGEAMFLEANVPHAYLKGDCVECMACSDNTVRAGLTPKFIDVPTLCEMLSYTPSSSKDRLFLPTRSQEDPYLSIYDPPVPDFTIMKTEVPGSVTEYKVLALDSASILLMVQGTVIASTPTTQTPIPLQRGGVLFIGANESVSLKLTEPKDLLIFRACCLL

[12] = target: Phosphoethanolamine/phosphocholine phosphatase (Homo sapiens, UniProt Q8TCT1); assay: SAR assay for compounds that inhibit PHOSPHO1. [Related pubchem assays (depositor defined):AID1545, AID1565, AID1574]
[13] = target: Phosphomannomutase 2 (Homo sapiens, UniProt O15305); assay: Counter screen SAR assay for PMM2 inhibitors via a fluorescence intensity assay. [Related pubchem assays (depositor defined):AID1545, AID1574]
[14] = target: T6, Voltage-dependent T-type calcium channel subunit alpha-1H (Homo sapiens, UniProt O95180); assay: Inhibitors of T-Type Calcium Channels. [Related pubchem assays (depositor defined):AID449739, AID463087, AID489005, AID493041, AID504579, AID504584, AID504619, AID504628]; assay type: functional
[15] = target: T6, Voltage-dependent T-type calcium channel subunit alpha-1H; assay type: functional
[16] = NIH3T3 cell viability loss – ATP luminescence, mouse fibroblasts, counter-screen, dose response (AID 2010); assay type: functional, cell-based;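 further: cells exposed to compound for about 90 hours before reading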
[17] = Trypanosoma cruzi growth suppression in host cells – NIH3T3 host cells, beta-gal luminescence, confirmation (AID 2044); assay type: functional, cell-based;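 further: intracellular parasites grown in NIH/3T3 mouse fibroblasts as host cells; luminescent beta-galactosidase reporter signal from transgenic T. cruzi replicating inside host cells; inhibitors lower the luminescence signal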

T1 sequence (Q00975 whole entry): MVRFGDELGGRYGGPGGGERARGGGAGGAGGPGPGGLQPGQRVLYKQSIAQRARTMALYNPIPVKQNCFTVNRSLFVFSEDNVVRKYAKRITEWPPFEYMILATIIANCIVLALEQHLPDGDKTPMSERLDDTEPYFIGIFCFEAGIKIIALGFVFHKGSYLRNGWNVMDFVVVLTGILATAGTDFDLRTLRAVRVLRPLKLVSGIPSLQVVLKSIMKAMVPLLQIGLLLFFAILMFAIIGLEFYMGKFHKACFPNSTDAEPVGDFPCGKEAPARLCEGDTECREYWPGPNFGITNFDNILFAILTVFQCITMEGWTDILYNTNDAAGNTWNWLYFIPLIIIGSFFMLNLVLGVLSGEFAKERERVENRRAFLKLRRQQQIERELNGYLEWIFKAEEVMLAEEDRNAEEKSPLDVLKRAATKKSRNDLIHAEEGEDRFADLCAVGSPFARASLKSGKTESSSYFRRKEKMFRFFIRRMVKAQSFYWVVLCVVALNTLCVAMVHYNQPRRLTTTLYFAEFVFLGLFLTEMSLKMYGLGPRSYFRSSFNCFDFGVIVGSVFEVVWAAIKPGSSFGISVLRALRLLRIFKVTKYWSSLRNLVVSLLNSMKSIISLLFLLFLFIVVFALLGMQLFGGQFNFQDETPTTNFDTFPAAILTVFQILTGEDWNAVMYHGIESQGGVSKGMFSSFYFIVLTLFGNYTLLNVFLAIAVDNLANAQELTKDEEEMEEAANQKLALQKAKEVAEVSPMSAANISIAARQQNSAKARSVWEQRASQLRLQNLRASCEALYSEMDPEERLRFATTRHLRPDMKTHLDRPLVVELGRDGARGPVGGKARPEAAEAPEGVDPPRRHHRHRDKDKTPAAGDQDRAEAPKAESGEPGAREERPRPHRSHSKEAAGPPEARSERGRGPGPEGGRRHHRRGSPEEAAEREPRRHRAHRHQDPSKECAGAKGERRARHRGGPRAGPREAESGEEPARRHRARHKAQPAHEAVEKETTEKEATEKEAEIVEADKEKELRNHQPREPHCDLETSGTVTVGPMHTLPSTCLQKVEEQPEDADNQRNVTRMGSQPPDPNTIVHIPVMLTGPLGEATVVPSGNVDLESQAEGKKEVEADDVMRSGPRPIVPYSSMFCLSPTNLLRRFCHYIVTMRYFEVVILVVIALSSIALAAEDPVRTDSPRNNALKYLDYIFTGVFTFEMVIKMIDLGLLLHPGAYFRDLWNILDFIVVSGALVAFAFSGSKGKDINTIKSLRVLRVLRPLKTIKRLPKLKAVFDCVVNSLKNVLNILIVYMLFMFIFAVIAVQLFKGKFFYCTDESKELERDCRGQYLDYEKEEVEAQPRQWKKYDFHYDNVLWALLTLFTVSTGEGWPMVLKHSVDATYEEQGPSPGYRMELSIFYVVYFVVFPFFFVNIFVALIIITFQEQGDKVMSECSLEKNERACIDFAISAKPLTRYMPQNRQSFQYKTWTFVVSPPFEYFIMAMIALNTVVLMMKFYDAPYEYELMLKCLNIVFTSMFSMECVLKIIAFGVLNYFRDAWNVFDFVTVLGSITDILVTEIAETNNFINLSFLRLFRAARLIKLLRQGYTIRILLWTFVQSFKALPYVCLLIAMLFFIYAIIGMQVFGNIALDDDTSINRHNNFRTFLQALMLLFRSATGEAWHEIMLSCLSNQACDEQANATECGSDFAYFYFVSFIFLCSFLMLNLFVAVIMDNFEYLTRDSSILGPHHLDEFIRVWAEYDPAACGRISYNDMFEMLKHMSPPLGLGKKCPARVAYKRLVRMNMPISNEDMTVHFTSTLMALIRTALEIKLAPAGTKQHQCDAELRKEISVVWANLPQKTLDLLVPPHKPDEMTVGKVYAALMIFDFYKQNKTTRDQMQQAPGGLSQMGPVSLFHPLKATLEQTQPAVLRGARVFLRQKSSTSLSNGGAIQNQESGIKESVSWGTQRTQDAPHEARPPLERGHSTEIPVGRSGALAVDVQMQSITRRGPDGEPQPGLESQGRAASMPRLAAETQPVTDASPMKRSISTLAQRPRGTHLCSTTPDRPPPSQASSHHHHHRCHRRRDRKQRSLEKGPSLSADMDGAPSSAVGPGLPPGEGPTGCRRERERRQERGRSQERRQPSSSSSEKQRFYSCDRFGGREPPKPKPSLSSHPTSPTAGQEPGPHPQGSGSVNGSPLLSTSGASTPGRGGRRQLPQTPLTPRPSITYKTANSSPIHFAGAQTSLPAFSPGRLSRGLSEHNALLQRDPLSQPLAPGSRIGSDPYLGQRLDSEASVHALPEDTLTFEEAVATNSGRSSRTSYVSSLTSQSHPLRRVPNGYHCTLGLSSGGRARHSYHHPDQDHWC
T1 sequence (Q02410 whole entry): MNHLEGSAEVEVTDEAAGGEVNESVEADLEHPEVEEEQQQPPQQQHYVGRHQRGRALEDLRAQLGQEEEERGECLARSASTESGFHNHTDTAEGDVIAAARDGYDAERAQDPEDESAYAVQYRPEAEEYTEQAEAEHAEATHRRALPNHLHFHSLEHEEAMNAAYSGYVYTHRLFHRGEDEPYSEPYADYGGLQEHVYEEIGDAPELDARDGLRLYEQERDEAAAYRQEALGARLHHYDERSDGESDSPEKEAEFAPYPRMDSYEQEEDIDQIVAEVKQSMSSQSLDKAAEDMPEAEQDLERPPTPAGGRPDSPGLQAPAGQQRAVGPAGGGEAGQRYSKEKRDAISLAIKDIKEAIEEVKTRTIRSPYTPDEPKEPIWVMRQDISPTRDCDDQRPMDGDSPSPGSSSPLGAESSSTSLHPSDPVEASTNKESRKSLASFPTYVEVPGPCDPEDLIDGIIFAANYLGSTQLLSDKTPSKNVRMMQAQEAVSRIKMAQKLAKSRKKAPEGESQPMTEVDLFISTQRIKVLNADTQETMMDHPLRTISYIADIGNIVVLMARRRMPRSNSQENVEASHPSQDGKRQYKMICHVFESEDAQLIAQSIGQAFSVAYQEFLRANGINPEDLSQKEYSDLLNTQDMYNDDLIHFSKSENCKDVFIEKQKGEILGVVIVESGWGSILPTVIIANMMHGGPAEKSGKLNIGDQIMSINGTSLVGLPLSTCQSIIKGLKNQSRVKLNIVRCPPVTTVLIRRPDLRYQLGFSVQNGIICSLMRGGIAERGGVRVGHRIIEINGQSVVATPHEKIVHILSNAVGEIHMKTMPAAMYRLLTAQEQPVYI
Sequence of Phosphomannomutase 2 (O15305 whole entry): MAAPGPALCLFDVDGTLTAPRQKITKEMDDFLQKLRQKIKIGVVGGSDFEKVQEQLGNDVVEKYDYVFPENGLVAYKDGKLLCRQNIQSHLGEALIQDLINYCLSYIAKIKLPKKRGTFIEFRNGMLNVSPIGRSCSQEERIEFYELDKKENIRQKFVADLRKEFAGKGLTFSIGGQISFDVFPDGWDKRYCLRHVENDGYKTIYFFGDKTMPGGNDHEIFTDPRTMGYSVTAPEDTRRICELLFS
Sequence of Neutrophil collagenase (P22894 whole entry): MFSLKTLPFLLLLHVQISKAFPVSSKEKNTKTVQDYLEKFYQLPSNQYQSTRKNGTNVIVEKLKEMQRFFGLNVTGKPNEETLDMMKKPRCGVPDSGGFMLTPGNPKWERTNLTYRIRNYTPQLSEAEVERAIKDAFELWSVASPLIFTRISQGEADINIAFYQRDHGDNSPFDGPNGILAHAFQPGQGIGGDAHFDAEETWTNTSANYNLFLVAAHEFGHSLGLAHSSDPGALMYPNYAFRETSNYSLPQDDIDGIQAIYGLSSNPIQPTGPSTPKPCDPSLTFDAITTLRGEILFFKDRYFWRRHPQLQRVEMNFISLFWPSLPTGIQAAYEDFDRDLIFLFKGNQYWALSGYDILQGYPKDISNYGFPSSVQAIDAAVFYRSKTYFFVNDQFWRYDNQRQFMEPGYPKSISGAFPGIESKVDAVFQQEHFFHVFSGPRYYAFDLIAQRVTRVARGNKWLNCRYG
Sequence of SUMO E1/E2 (Q9UBE0 whole entry): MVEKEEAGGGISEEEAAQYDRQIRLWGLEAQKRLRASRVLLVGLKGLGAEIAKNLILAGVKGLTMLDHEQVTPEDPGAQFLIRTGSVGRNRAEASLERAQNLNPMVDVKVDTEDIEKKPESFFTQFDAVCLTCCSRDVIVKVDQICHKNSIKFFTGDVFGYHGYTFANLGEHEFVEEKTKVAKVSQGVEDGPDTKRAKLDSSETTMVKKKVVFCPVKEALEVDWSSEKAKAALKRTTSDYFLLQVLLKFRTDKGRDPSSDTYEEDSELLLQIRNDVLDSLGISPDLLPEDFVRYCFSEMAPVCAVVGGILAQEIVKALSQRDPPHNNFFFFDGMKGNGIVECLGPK
Sequence of SUMO E1/E2 (Q9UBT2 whole entry): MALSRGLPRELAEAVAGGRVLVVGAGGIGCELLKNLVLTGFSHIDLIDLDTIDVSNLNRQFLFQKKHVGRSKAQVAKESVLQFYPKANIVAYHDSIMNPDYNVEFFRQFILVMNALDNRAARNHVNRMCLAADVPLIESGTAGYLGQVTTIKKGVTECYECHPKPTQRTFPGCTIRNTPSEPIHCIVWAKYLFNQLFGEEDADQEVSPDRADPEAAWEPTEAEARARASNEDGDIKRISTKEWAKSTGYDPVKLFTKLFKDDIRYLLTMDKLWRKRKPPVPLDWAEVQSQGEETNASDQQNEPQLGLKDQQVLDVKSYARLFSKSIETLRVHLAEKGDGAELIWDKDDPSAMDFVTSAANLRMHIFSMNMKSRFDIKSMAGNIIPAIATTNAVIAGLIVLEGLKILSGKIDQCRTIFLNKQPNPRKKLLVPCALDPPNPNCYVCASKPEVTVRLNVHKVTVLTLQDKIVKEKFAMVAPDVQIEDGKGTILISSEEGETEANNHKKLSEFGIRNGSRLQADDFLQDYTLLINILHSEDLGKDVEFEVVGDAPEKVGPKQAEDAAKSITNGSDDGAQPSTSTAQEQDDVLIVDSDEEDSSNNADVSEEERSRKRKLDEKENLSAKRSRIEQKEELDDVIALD
Sequence of SUMO E1/E2 (P63279 whole entry): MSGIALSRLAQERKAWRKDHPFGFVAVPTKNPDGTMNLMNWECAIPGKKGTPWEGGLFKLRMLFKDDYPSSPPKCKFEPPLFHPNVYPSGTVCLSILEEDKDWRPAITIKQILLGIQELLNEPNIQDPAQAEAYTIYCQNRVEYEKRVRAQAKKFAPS

O=C(COC(=O)c1cc(-c2ccco2)nc2ccccc12)NC(=O)c1ccccc1
IC50 [1]: 8.83 µM (active)
IC50 [2]: 2.18 µM (active)
IC50 [3]: 21.9 µM (active)

O=c1[nH]c(SCc2ccc(OC(F)(F)F)cc2)nc2c1CCC2
IC50 [4]: > 39.8 µM (active)
IC50 [5]: > 39.8 µM (inactive)

O=C(C1=NN(c2ccccc2)C2C(=O)N(c3ccccc3)C(=O)C12)c1ccccc1 (configuration not stated)
EC50 [6]: > 85.3 µM (inactive)
IC50 [7]: 25.5 µM (not active)
IC50 [8]: > 55.7 µM (not active)
EC50 [9]: 14.6 µM (active)
EC50 [10]: > 85.3 µM (inactive)

O=c1c2ccc(F)cc2sn1-c1cc(Cl)ccc1Cl
IC50 [11]: 44.9 µM (active)
IC50 [12]: 0.384 µM (active)
IC50 [13]: 3.37 µM (active)

CCc1ccc(-c2nc(CN3CCCC(C(=O)NCCc4ccc(OC)c(OC)c4)C3)c(C)o2)cc1 (configuration not stated)
EC50 [14]: 3.95 µM (active)
EC50 [15]: 5.02 µM (active)
EC50 [16]: > 60 µM (not active)
EC50 [17]: 0.161 µM (active)
